Experimental data: ChEMBL document CHEMBL2169825, “Development of selective, potent RabGGTase inhibitors” (J Med Chem, 2012)

Key:
A2780 = assay: Cytotoxicity against human A2780 cells after 24 hrs by Alamar Blue assay; format: functional, cell-based; conditions: A2780, 24 h
[1] = Inhibition of RabGGTase in human HeLa cells after 6 hrs by reprenylation assay; format: cell-based
[2] = Inhibition of FTase using NBD-GPP as substrate after 10 mins by solution based fluorometric assay
A549 = assay: Cytotoxicity against human A549 cells after 24 hrs by Alamar Blue assay; format: functional, cell-based; conditions: A549, 24 h
HeLa = assay: Cytotoxicity against human HeLa cells after 24 hrs by Alamar Blue assay; format: functional, cell-based
[3] = Inhibition of GGTase 1 using NBD-FPP as substrate after 10 mins by solution based fluorometric assay
DU-145 = assay: Cytotoxicity against human DU145 cells after 24 hrs by Alamar Blue assay; format: functional, cell-based; conditions: DU-145, 24 h
HCT-116 = assay: Cytotoxicity against human HCT116 cells after 24 hrs by Alamar Blue assay; format: functional, cell-based; conditions: HCT-116, 24 h
[4] = Inhibition of RabGGTase using [3H]GGPP as substrate after 1 hr by scintillation proximity assay
[5] = Inhibition of RabGGTase using NBD-FPP as substrate after 5 mins by fluorometric assay
[6] = Inhibition of rat RabGGTase using [3H]GGPP as substrate after 30 mins by scintillation counter
PBMC = assay: Cytotoxicity against human PBMC cells after 24 hrs by Alamar Blue assay; format: cell-based

IC50 [1] [µM]	IC50 [2] [µM]	IC50 [3] [µM]	IC50 [4] [µM]	IC50 [5] [µM]	IC50 [6] [µM]	Structure (SMILES)	IC50 (A2780) [µM]	IC50 (A549) [µM]	IC50 (HeLa) [µM]	IC50 (DU-145) [µM]	IC50 (HCT-116) [µM]	IC50 (PBMC) [µM]
0.074	0.006	> 99.5	0.0064	0.724	0.021	COc1ccc(S(=O)(=O)N2Cc3cc(C#N)ccc3N(Cc3cncn3C)C[C@H]2Cc2ccccc2)cc1	0.043	0.099	0.101	0.07	0.063	> 10
0.3	0.079	> 99.5	0.121	–	–	COc1ccc(S(=O)(=O)N2Cc3cc(-c4ccnc(OC)c4)ccc3N(Cc3cncn3C)C[C@H]2Cc2ccc(-c3cccnc3)cc2)cc1	–	–	–	–	–	–
–	2.43	> 99.5	5.72	–	–	COc1ccc(S(=O)(=O)N2Cc3cc(-c4ccnc(OC)c4)ccc3N(Cc3cncn3C)C[C@H]2Cc2ccc(Nc3ccccc3)cc2)cc1	–	–	–	–	–	–
–	0.112	> 99.5	0.027	–	–	COc1ccc(S(=O)(=O)N2Cc3cc(N4CCN(C(C)=O)CC4)ccc3N(Cc3cncn3C)C[C@H]2Cc2ccc(O)cc2)cc1	–	–	–	–	–	–
–	0.11	> 99.5	0.037	–	–	COc1ccc(S(=O)(=O)N2Cc3cc(-c4ccc(C#N)o4)ccc3N(Cc3cncn3C)C[C@H]2Cc2ccc(-c3cccnc3)cc2)cc1	–	–	–	–	–	–
–	2.56	> 99.5	5.25	–	–	COc1ccc(S(=O)(=O)N2Cc3cc(-c4ccnc(OC)c4)ccc3N(Cc3cncn3C)C[C@H]2Cc2ccc(OCc3ccccc3)cc2)cc1	–	–	–	–	–	–
0.343	–	2.02	0.123	–	–	CCN(CC)C(=O)Oc1ccc(C[C@@H]2CN(Cc3cncn3C)c3ccc(C#N)cc3CN2S(=O)(=O)c2ccc(OC)cc2)cc1	0.043	0.412	0.745	–	0.075	> 10
> 10	–	> 99.5	1.5	18.6	–	COc1ccc(S(=O)(=O)N2Cc3cc(C#N)ccc3N(Cc3cncn3C)C[C@H]2Cc2ccc(OS(=O)(=O)C(F)(F)F)cc2)cc1	0.092	2.22	1.96	3.1	–	> 10
0.12	0.007	> 99.5	–	0.206	–	COc1ccc(S(=O)(=O)N2Cc3cc(-c4ccc(C=O)o4)ccc3N(Cc3cncn3C)C[C@H]2Cc2ccc(O)cc2)cc1	–	–	–	–	–	–
0.011	0.0269	> 99.5	< 0.014	0.0625	–	COc1ccc(S(=O)(=O)N2Cc3cc(-c4ccc(C#N)o4)ccc3N(Cc3cncn3C)C[C@H]2Cc2ccc(O)cc2)cc1	0.018	–	0.021	–	0.002	> 10
–	0.0186	> 99.5	0.0055	–	–	COc1ccc(S(=O)(=O)N2Cc3cc(-c4ccnc(OC)c4)ccc3N(Cc3cncn3C)C[C@H]2Cc2ccc(O)cc2)cc1	–	–	–	–	–	–
–	0.0136	> 99.5	< 0.004	–	–	COc1ccc(S(=O)(=O)N2Cc3cc(-c4ccncc4)ccc3N(Cc3cncn3C)C[C@H]2Cc2ccc(O)cc2)cc1	–	–	–	–	–	–
0.307	0.01	> 99.5	0.156	0.162	–	CCCCOc1ccc(C[C@@H]2CN(Cc3cncn3C)c3ccc(C#N)cc3CN2S(=O)(=O)c2ccc(OC)cc2)cc1	0.165	0.216	0.154	0.241	0.264	8.69

The remaining lines, values behind:

Structure (SMILES)	IC50 [1] [µM]	IC50 [2] [µM]	IC50 [3] [µM]	IC50 [4] [µM]	IC50 [5] [µM]	IC50 [6] [µM]	IC50 (A2780) [µM]	IC50 (A549) [µM]	IC50 (HeLa) [µM]	IC50 (DU-145) [µM]	IC50 (HCT-116) [µM]	IC50 (PBMC) [µM]
COc1ccc(S(=O)(=O)N2Cc3cc(-c4ccc(C=O)o4)ccc3N(Cc3cncn3C)C[C@H]2Cc2ccc(OC(=O)NCc3ccccc3)cc2)cc1	0.311	> 9.7	> 99.5	1.55	0.616	–	0.589	–	0.797	–	0.443	> 10
CCCCCCNC(=O)c1ccc2c(c1)CN(S(=O)(=O)c1ccc(OC)cc1)[C@H](Cc1ccc(O)cc1)CN2Cc1cncn1C	3.89	0.0207	> 99.5	0.0705	–	–	–	–	–	–	–	–
COc1ccc(S(=O)(=O)N2Cc3cc(Nc4ccccc4)ccc3N(Cc3cncn3C)C[C@H]2Cc2ccc(O)cc2)cc1	–	0.454	> 99.5	0.246	–	–	–	–	–	–	–	–
COc1ccc(S(=O)(=O)N2Cc3cc(-c4ccc(C=O)o4)ccc3N(Cc3cncn3C)C[C@H]2Cc2ccc(OS(=O)(=O)C(F)(F)F)cc2)cc1	–	> 9.7	> 99.5	4.29	–	–	–	–	–	–	–	–
COc1ccc(S(=O)(=O)N2Cc3cc(-c4ccc(C=O)o4)ccc3N(Cc3cncn3C)C[C@H]2Cc2ccc(-c3ccc(Cl)cc3)cc2)cc1	–	> 9.7	> 99.5	2.24	–	–	–	–	–	–	–	–
COc1ccc(S(=O)(=O)N2Cc3cc(-c4ccc(C#N)o4)ccc3N(Cc3cncn3C)C[C@H]2Cc2ccc(OC(=O)NCc3ccccc3)cc2)cc1	0.049	> 9.7	> 99.5	0.26	0.0416	–	0.115	–	0.101	–	0.035	> 10
COc1ccc(S(=O)(=O)N2Cc3cc(-c4ccc(C#N)o4)ccc3N(Cc3cncn3C)C[C@H]2Cc2ccc(OCc3ccccc3)cc2)cc1	0.213	> 9.7	> 99.5	0.577	–	–	–	–	–	–	–	–
COc1ccc(S(=O)(=O)N2Cc3cc(-c4ccc(C#N)o4)ccc3N(Cc3cncn3C)C[C@H]2Cc2ccc(OS(=O)(=O)C(F)(F)F)cc2)cc1	0.054	–	–	–	–	–	0.222	–	0.13	–	0.071	> 10
COc1ccc(S(=O)(=O)N2Cc3cc(-c4ccc(C#N)o4)ccc3N(Cc3cncn3C)C[C@H]2Cc2ccc(Nc3ccccc3)cc2)cc1	–	1.21	> 99.5	1.06	–	–	–	–	–	–	–	–
COc1ccc(S(=O)(=O)N2Cc3cc(-c4ccnc(OC)c4)ccc3N(Cc3cncn3C)C[C@H]2Cc2ccc(OC(=O)NCc3ccccc3)cc2)cc1	0.338	0.321	> 99.5	0.055	–	–	–	–	–	–	–	–
COc1ccc(S(=O)(=O)N2Cc3cc(C#N)ccc3N(Cc3cncn3C)C[C@H]2Cc2ccc(OC(=O)NCc3ccccc3)cc2)cc1	0.081	–	> 99.5	–	0.0722	–	0.13	0.338	0.151	0.142	0.231	> 10
COc1ccc(S(=O)(=O)N2Cc3cc(C#N)ccc3N(Cc3cncn3C)C[C@H]2Cc2ccc(-c3cccnc3)cc2)cc1	0.466	0.0043	3.63	0.011	0.353	–	0.399	0.442	0.409	0.413	0.308	> 10
COc1ccc(S(=O)(=O)N2Cc3cc(-c4ccc(Cl)cc4)ccc3N(Cc3cncn3C)C[C@H]2Cc2ccc(O)cc2)cc1	–	0.194	> 99.5	0.706	–	–	–	–	–	–	–	–
COc1ccc(S(=O)(=O)N2Cc3cc(-c4cccc(C#N)c4)ccc3N(Cc3cncn3C)C[C@H]2Cc2ccc(O)cc2)cc1	–	0.0344	> 99.5	0.0225	–	–	–	–	–	–	–	–
COc1ccc(S(=O)(=O)N2Cc3cc(-c4cc(F)cc(F)c4)ccc3N(Cc3cncn3C)C[C@H]2Cc2ccc(O)cc2)cc1	–	0.172	> 99.5	0.185	–	–	–	–	–	–	–	–
COc1ccc(S(=O)(=O)N2Cc3cc(-c4ccco4)ccc3N(Cc3cncn3C)C[C@H]2Cc2ccc(O)cc2)cc1	–	0.0817	> 99.5	0.055	–	–	–	–	–	–	–	–
COc1ccc(S(=O)(=O)N2Cc3cc(C(=O)NCc4ccccc4)ccc3N(Cc3cncn3C)C[C@H]2Cc2ccc(O)cc2)cc1	–	0.007	> 99.5	0.019	–	–	–	–	–	–	–	–
COc1ccc(S(=O)(=O)N2Cc3cc(C#N)ccc3N(Cc3cncn3C)C[C@H]2Cc2ccc(O)cc2)cc1	0.115	0.0052	> 99.5	< 0.004	1.01	–	0.1	0.315	0.13	0.162	0.172	–
COc1ccc(S(=O)(=O)N2Cc3cc(C#N)ccc3N(Cc3cncn3C)C[C@H]2Cc2ccc(OCC=C(C)C)cc2)cc1	0.043	0.015	> 99.5	0.063	0.039	–	0.116	0.074	0.059	0.09	0.112	8.03
COc1ccc(S(=O)(=O)N2Cc3cc(C#N)ccc3N(Cc3cncn3C)C[C@H]2Cc2ccc(OCc3ccccc3)cc2)cc1	–	0.0993	> 99.5	0.181	0.441	–	0.265	0.746	0.372	0.756	1.05	> 10
COc1ccc(S(=O)(=O)N2Cc3cc(C#N)ccc3N(Cc3cncn3C)C[C@H]2Cc2ccc(OC/C=C(\C)CCC=C(C)C)cc2)cc1	0.278	1.01	> 99.5	0.0235	2.07	–	1.38	0.653	–	–	1.43	> 10
CCCCCCNC(=O)Oc1ccc(C[C@@H]2CN(Cc3cncn3C)c3ccc(C#N)cc3CN2S(=O)(=O)c2ccc(OC)cc2)cc1	0.0773	–	> 99.5	0.0155	0.243	–	0.233	0.289	–	0.228	0.355	–
